Measured values from paper PMC6219668 (Oncotarget, 2018).
Like-named read-outs stand apart in the source and are kept apart here.

System: panel of nearly 500 cancer cell lines
Assay: Cancer Cell Line Encyclopedia profiling, 3-day CellTiter-Glo
Type: cell-based
Settings: read-out: IC50

For `CC(=O)c1c(C)c2cnc(Nc3ccc(N4CCNCC4)cn3)nc2n(C2CCCC2)c1=O` [Palbociblib], the IC50 (ovcar4 (ovary)) was greater than 8 µM, the IC50 (ovcar8 (ovary)) was greater than 8 µM and the IC50 (ovmana (ovary)) was greater than 8 µM. It also gave an IC50 (ovsaho (ovary)) greater than 8 µM, an IC50 (ovtoko (ovary)) greater than 8 µM and an IC50 (p3hr1 (haematopoietic_and_lymphoid_tissue)) of 7.56 µM. The IC50 (p31fuj (haematopoietic_and_lymphoid_tissue)) was greater than 8 µM, the IC50 (panc0203 (pancreas)) was greater than 8 µM and the IC50 (panc0327 (pancreas)) was greater than 8 µM. For the same compound, the IC50 (panc0403 (pancreas)) was greater than 8 µM, the IC50 (panc1005 (pancreas)) was greater than 8 µM and the IC50 (pc3 (prostate)) was greater than 8 µM. For the same compound, the IC50 (pfeiffer (haematopoietic_and_lymphoid_tissue)) was 6.95 µM, the IC50 (pk1 (pancreas)) was greater than 8 µM and the IC50 (pk59 (pancreas)) was greater than 8 µM. It also gave an IC50 (pk45h (pancreas)) greater than 8 µM, an IC50 (pl45 (pancreas)) greater than 8 µM and an IC50 (plcprf5 (liver)) greater than 8 µM. For the same compound, the IC50 (raji (haematopoietic_and_lymphoid_tissue)) was greater than 8 µM, the IC50 (rd (soft_tissue)) was greater than 8 µM and the IC50 (reh (haematopoietic_and_lymphoid_tissue)) was 5.91 µM. It also gave an IC50 (rerfgc1b (stomach)) greater than 8 µM, an IC50 (rerflcai (lung)) greater than 8 µM and an IC50 (rerflcms (lung)) greater than 8 µM. It also gave an IC50 (rkn (soft_tissue)) greater than 8 µM, an IC50 (rko (large_intestine)) greater than 8 µM and an IC50 (rl952 (endometrium)) greater than 8 µM. The IC50 (rt4 (urinary_tract)) was greater than 8 µM, the IC50 (rt112 (urinary_tract)) was greater than 8 µM and the IC50 (rvh421 (skin)) was greater than 8 µM. For the same compound, the IC50 (saos2 (bone)) was greater than 8 µM, the IC50 (sbc5 (lung)) was greater than 8 µM and the IC50 (scaber (urinary_tract)) was greater than 8 µM. It also gave an IC50 (scc25 (upper_aerodigestive_tract)) greater than 8 µM, an IC50 (sf126 (central_nervous_system)) greater than 8 µM and an IC50 (sf295 (central_nervous_system)) greater than 8 µM. It also gave an IC50 (sf8657 (skin)) greater than 8 µM, an IC50 (sh10tc (stomach)) greater than 8 µM and an IC50 (shp77 (lung)) greater than 8 µM. For the same compound, the IC50 (sjrh30 (soft_tissue)) was greater than 8 µM, the IC50 (sjsa1 (bone)) was greater than 8 µM and the IC50 (skbr3 (breast)) was greater than 8 µM. It also gave an IC50 (skco1 (large_intestine)) greater than 8 µM, an IC50 (skes1 (bone)) greater than 8 µM and an IC50 (skhep1 (liver)) greater than 8 µM. For the same compound, the IC50 (sklu1 (lung)) was greater than 8 µM, the IC50 (skmel2 (skin)) was greater than 8 µM and the IC50 (skmel5 (skin)) was greater than 8 µM. The IC50 (skmel24 (skin)) was greater than 8 µM, the IC50 (skmel30 (skin)) was greater than 8 µM and the IC50 (skmel31 (skin)) was greater than 8 µM. The IC50 (skmm2 (haematopoietic_and_lymphoid_tissue)) was greater than 8 µM, the IC50 (sknas (autonomic_ganglia)) was greater than 8 µM and the IC50 (sknbe2 (autonomic_ganglia)) was 4.99 µM. It also gave an IC50 (skndz (autonomic_ganglia)) greater than 8 µM, an IC50 (sknsh (autonomic_ganglia)) greater than 8 µM and an IC50 (skov3 (ovary)) greater than 8 µM. It also gave an IC50 (sngm (endometrium)) greater than 8 µM, an IC50 (snu1 (stomach)) of 5.73 µM and an IC50 (snu16 (stomach)) greater than 8 µM. It also gave an IC50 (snu182 (liver)) greater than 8 µM, an IC50 (snu423 (liver)) greater than 8 µM and an IC50 (snu449 (liver)) greater than 8 µM. It also gave an IC50 (snuc2a (large_intestine)) greater than 8 µM, an IC50 (snuc2b (large_intestine)) greater than 8 µM and an IC50 (su8686 (pancreas)) greater than 8 µM. It also gave an IC50 (sudhl8 (haematopoietic_and_lymphoid_tissue)) of 1.21 µM, an IC50 (sudhl10 (haematopoietic_and_lymphoid_tissue)) of 3.42 µM and an IC50 (suit2 (pancreas)) greater than 8 µM. The IC50 (supm2 (haematopoietic_and_lymphoid_tissue)) was 5.92 µM, the IC50 (supt1 (haematopoietic_and_lymphoid_tissue)) was greater than 8 µM and the IC50 (sw48 (large_intestine)) was greater than 8 µM. It also gave an IC50 (sw403 (large_intestine)) greater than 8 µM, an IC50 (sw480 (large_intestine)) greater than 8 µM and an IC50 (sw579 (thyroid)) greater than 8 µM. For the same compound, the IC50 (sw620 (large_intestine)) was greater than 8 µM, the IC50 (sw780 (urinary_tract)) was 1.64 µM and the IC50 (sw900 (lung)) was greater than 8 µM. It also gave an IC50 (sw1271 (lung)) greater than 8 µM, an IC50 (sw1353 (bone)) greater than 8 µM and an IC50 (sw1417 (large_intestine)) greater than 8 µM. It also gave an IC50 (sw1990 (pancreas)) greater than 8 µM, an IC50 (t3m10 (lung)) greater than 8 µM and an IC50 (t24 (urinary_tract)) greater than 8 µM. The IC50 (t84 (large_intestine)) was greater than 8 µM, the IC50 (t98g (central_nervous_system)) was greater than 8 µM and the IC50 (t47d (breast)) was greater than 8 µM. The IC50 (tc71 (bone)) was greater than 8 µM, the IC50 (tccsup (urinary_tract)) was greater than 8 µM and the IC50 (te9 (oesophagus)) was greater than 8 µM. For the same compound, the IC50 (te617t (soft_tissue)) was 1.01 µM, the IC50 (ten (endometrium)) was greater than 8 µM and the IC50 (toledo (haematopoietic_and_lymphoid_tissue)) was greater than 8 µM. It also gave an IC50 (tov21g (ovary)) greater than 8 µM and an IC50 (tov112d (ovary)) greater than 8 µM.
